Source: ChEMBL document CHEMBL5370582, “Heterolactone and Heterolactams A-M, Verticillane Diterpenoids with Anti-Inflammatory and Hepatoprotective Activities from the Soft Coral Heteroxenia ghardaqensis” (J Nat Prod, 2023)
Active and inactive are the calls of the source. No cut-off for these calls is given here.

Species: Danio rerio
Experiment: Anti-inflammatory activity against CuSO4-induced inflammatory response in transgenic Zebrafish larvae assessed as reduction in number of macrophages at 20 uM pretreated for 2 hrs followed by CuSO4-stimulation and measured after 1 hr by fluorescence microscopy
Type: functional, organism-based
Conditions: time 3.0 hrs
For `COc1ccc2c(c1)c(CC(=O)O)c(C)n2C(=O)c1ccc(Cl)cc1`, the Activity was “Active”.
For `C[C@H]1CC[C@@H]2CCC3=C(C2(C)C)[C@@](O)(C[C@@H](C)CC(=O)C1)N(CCc1ccccc1)C3=O`, the Activity was “Active”.
`C[C@H]1CC[C@@H]2CCC3=C([C@@H](C[C@@H](C)CC(=O)C1)N(CCc1ccccc1)C3=O)C2(C)C` was tested, and the Activity was “Active”.
In the case of `C[C@H]1CC[C@@H]2CCC3=C([C@@H](C[C@@H](C)CC(=O)C1)N(CCO)C3=O)C2(C)C`, the Activity is reported as “Active”.

Species: Danio rerio
Experiment: Hepatoprotective activity against isoniazid/alcohol-induced liver injury in transgenic Zebrafish larvae at 50 uM incubated for 72 hrs by fluorescence microscopy
Type: functional, organism-based
Conditions: not given
For `C[S+](CC[C@H](N)C(=O)[O-])C[C@H]1O[C@@H](n2cnc3c(N)ncnc32)[C@H](O)[C@@H]1O` (stereo partly drawn), the Activity was “Active”.
In the case of `CC(C)CCN1C(=O)[C@@]2(C)CC[C@H]3CC[C@H](C)CC(=O)C[C@H](C)/C=C\1[C@]2(O)C3(C)C`, the Activity is reported as “Active”.
With `C[C@H]1CC[C@@H]2CCC3=C([C@@H](C[C@@H](C)CC(=O)C1)N(CCO)C3=O)C2(C)C` the Activity was “Active”.
For `C[C@H]1CC[C@@H]2CCC3=C(C2(C)C)[C@@](O)(C[C@@H](C)CC(=O)C1)NC3=O`, the Activity was “Active”.
